Data from patent US20130078298A1, “GASEOUS NITRIC OXIDE-SEQUESTERING PRODUCTS AND PROCESSES OF PREPARING SAME” (Enox Biopharma, Inc, priority 2010, published 2013).

Tests used:
[1] = system: Bacterial vaginosis (BV); conditions: following metronidazole treatment of BV; cited from earlier work
[2] = system: A. baumanii; assay: Biofilm sterilization by gaseous NO; assay type: cell-based, Acinetobacter baumanii; conditions: 20,000 ppm NO, 1 liter/minute, 5, 10, 30, 60 or 120 minutes
Method: (§1) A biofilm was established in each well of a 6-well plate and the time of treatment with nitric oxide gas for eradication of the biofilm was tested using the biofilm formation assay described hereinabove.
(§2) Briefly, 3 ml of LB media were placed in each well of 12 6-well plates and then each well was inoculated with 10 μl of stock bacteria (E. Coli or A. baumanii (6 plates for each bacterial type). Plates were incubated with agitation for 5 days at 37° C. to establish a biofilm in each well. The media was removed and each well washed twice with sterile saline.
(§3) Plates with established biofilms (one for each bacterial type) were treated with nitric oxide (20,000 ppm, 1 liter/minute flow rate) for 5, 10, 30, 60 or 120 minutes. Control plates were kept at room temperature, without treatment.
(§4) Three of the six wells for each plate were stained with crystal violet to confirm biofilm formation. The biofilm in the remaining 3 wells of each plate was re-suspended (with 30 seconds sonication) in 5 ml sterile saline. Aliquots of 1, 10 and 100 μl of each sample were plated in compartmentalized (3-section) petri plates.

[3] = system: E. coli; conditions: multiple 30 minute treatments of 160 ppm nitric oxide; cited from earlier work
[4] = system: E. coli; assay: Biofilm sterilization by gaseous NO; assay type: cell-based, Escherichia coli; conditions: 20,000 ppm NO, 1 liter/minute, 5, 10, 30, 60 or 120 minutes
Method: as §1, §2, §3, §4

[5] = system: E. coli; assay: Sterilization of E. coli-inoculated catheter sections by nitric oxide dosing (CFU count); assay type: cell-based, Escherichia coli; conditions: 20,000 ppm NO, 30 cc/minutes
Method: Six-mm diameter Folysil® silicone Foley catheters, (catalog no. AA6118; Coloplast® Corp. Minneapolis, Minn., USA) (Folysil® and Coloplast® are registered trademarks of Coloplast A/S, Humlebaek, Denmark) were aseptically cut into 2-cm sections and inoculated by immersion in 2 ml of one of 10^3 CFU/ml, 10^5CFU/ml, or 10^8 CFU/ml E. coli. inocula for 30 minutes. Inoculated catheter sections were subsequently dosed with 20,000 parts per million of nitric oxide (at a flow rate of 30 cc/minutes) during 1, 5, 15, 30, 60 or 120 minutes, using the general procedure I described hereinabove. Control catheter sections were not impregnated with nitric oxide, but were stored in sterile sealed vials.
The nitric oxide-treated and untreated catheter segments were then immersed separately in 2 ml media and then incubated for 8 hours at 37° C. Aliquots of the incubation media were plated and numbers of CFU counted. Bacterial loads were calculated as CFU per ml.
Foley catheters, (catalog no. AA6118; Coloplast® Corp. Minneapolis, Minn., USA) is aseptically cut into 2-cm sections and inoculated by immersion in 2 ml of one of 10^3 CFU/ml, 10^5 CFU/ml, or 10^8 CFU/ml E. coli. inocula for 30 minutes. Inoculated catheter sections are subsequently dosed with nitric oxide using the general procedure II described hereinabove. Control catheter sections are not impregnated with nitric oxide, but are stored in sterile sealed vials.
The nitric oxide-treated and untreated catheter segments are then immersed separately in 2 ml media and incubated for 8 hours at 37° C. Aliquots of the incubation media are plated and numbers of CFU counted. Bacterial loads are calculated as CFU per ml.

[6] = system: Staphylococcus aureus; conditions: multiple 30 minute treatments of 160 ppm nitric oxide; cited from earlier work
[7] = system: Pseudomonas aeruginosa; conditions: multiple 30 minute treatments of 160 ppm nitric oxide; cited from earlier work

## Cc1ncc([N+](=O)[O-])n1CCO [metronidazole]
[1]
  cure rate: 61%

## [N]=O [nitric oxide]
[2]
  colonies from re-suspended established biofilm: no colonies were observed
[3]
  decrease in the bacterial load: > 5 log 10 colony forming unit per milliliter (CFU/ml)
[4]
  colonies from re-suspended established biofilm: no colonies were observed
[5]; 10^3 bacterial stock
  treatment time after which the catheter segments were sterilized: 1 min
[5]; 10^5 bacterial stock
  treatment time after which the catheter segments were sterilized: 15 min
[5]; 10^8 bacterial stock
  treatment time after which the catheter segments were sterilized: 15 min
[6]
  decrease in the bacterial load: > 5 log 10 colony forming unit per milliliter (CFU/ml)
[7]
  decrease in the bacterial load: > 5 log 10 colony forming unit per milliliter (CFU/ml)
